Results from patent US20040034023A1, “Use of polycyclic aromatic compounds for making medicines capable of inhibiting telomerase” (priority 2000, published 2004).
Values joined by “and” are separate entries in the source; they are usually repeats but may differ in a detail not shown here. Identical values can stand only once.

Experiments:
human telomerase = experiment: Telomerase inhibition, TRAP test with HL60 cell extract; assay type: biochemical; settings: for IC50: TRAP test, HL60 cell lysate as source of telomerase; for in vitro inhibition of the telomerase (FIG. 3A, gel of elongation products): tested at 0.1, 1 and 10 μM
[1] = test system: G-quadruplex (fluo-GGGTTAGGGTTAGGGTTAGGG-tamra oligonucleotide, SEQ ID No. 1); experiment: G-quadruplex stabilization, Tm in fluorescence (FRET method); assay type: binding; settings: 1 μM colorant; 0.1 M LiCl 10 mM cacodylate buffer pH 7.6; 0.2 μM oligonucleotide
Method: All the experiments were carried out in a 10 mM sodium cacodylate buffer of pH 7.6 containing 0.1 M of lithium chloride (or sodium chloride). The absence of fluorescent contamination in the buffer was verified beforehand. The fluorescent oligonucleotide is added at the final concentration of 0.2 μM.
The identification of G-quartets ligands was carried out by fluorescence according to the FRET (Fluorescence Resonance Energy Transfer) method which corresponds to a dipole-dipole resonance interaction between two molecules close to each other, one of which, the donor, transfers its excitation energy to the other molecule, or acceptor. The formation of an intramolecular G-quartet structure must bring the 2 chromophores close enough to be able to observe a transfer of energy.
All the fluorescence measurements were carried out on a Spex Fluorolog DM1B apparatus, using an excitation line width of 1.8 nm and an emission line width of 4.5 nm. The specimens are placed in a micro quartz dish measuring 0.2×1 cm. The temperature of the specimen is controlled by an external water bath. The single oligonucleotide was analysed at 20, 30, 40, 50, 60, 70 and 80° C. The emission spectra are recorded using an excitation wavelength of 470 nm. The excitation spectra are recorded using either 515 nm, or 588 nm as emission wavelength. The spectra are adjusted to take account of the response of the instrument by reference curves. A substantial extinction (80-90%) of the fluorescence of the fluorescein at ambient temperature is observed, in keeping with an intramolecular folding of the oligonucleotide at 20° C. in the form of a G-quadruplex, which induces a juxtaposition of its 5′ and 3′ ends, respectively bound to the fluorescein and to the tetramethylrhodamine (tamra in short). This juxtaposition involves a phenomenon already described, extinction of fluorescence of the donor by FRET, and a sensitized emission of the acceptor.
A stock solution of oligonucleotide at the strand concentration of 0.2 μM in a 0.1 M LiCl 10 mM cacodylate buffer of pH 7.6 is prepared beforehand, heated briefly to 90° C. and cooled slowly to 20° C., then distributed by aliquots of 600 μl in the fluorescence dishes. 3 μl of water (for the control) or 3 μl of the product to be tested (stock at 200 μM, final concentration 1 μm) are then added and mixed. The specimens are then left to incubate for at least 1 hour at 20° C. before each measurement.
Each experiment allows only a single specimen to be measured. This is firstly incubated at an initial temperature of 20° C., raised to 80° C. in 40 minutes, left for 5 minutes at 80° C., then cooled to 20° C. in 62 minutes. During this time, the fluorescence is measured simultaneously at two emission wavelengths (515 nm and 588 nm) using 470 nm as excitation wavelength. A measurement is carried out every 30 seconds. The temperature of the water bath is recorded in parallel, and the fluorescence profile as a function of the temperature is reconstituted from these values. The fluorescence profiles are then standardized between 20° C. and 80° C., and the temperature for which the emission intensity at 515 nm is the average of those and high and low temperature is called Tm. In these conditions, the Tm of the reference specimen without addition of product is 44° C. in a lithium chloride buffer. This temperature is increased to more than 55° C. in the sodium chloride buffer. The addition of a compound stabilizing the G-quadruplex induces an increase in the Tm. This increase is considered significant if it is greater than 3° C.
In the tests for which the results are reported below, two oligonucleotides were used of sequences SEQ ID No. 1 and SEQ ID No. 2, replaced at the 5′ end by a fluorescein (fluo in short) group and at 3′ end by a tamra group, conforming to the following sequences: […]

triplex = settings: 15 μM colorant; cited from earlier work
human HeLa tumoral line = experiment: Antiproliferative effect / cytotoxicity on HeLa cells (Cell Titer 96 Aqueous One Solution); assay type: cell-based
Method: Cells of cancer lines are incubated for 3 days in the presence of different concentrations of compound 1.
These cells are cultured in a MEM (Life Technologies) medium containing 10% of decomplemented foetal calf serum, glutamine, nonessential amino acids (1%) and antibiotics (penicillin and streptomycin). The ligand is diluted in the culture medium after adhesion of the cells on 96-well plates (2500 cells per well). The number of cells is estimated by the “Cell Titer 96 Aqueous One Solution Cell Proliferation Assay” kit from Promega. Each measurement was carried out in quadruplicate. The cells are left in the presence of the compound for 1 to 4 days, then counted.

Molecule	IC50 (human telomerase)	Δ Tm G4(FRET) [1]	Δ Tm triplex (triplex) [°C]	further results
CCCNCc1cc2nc3ccccc3cc2c2cc3ccccc3nc12 [Compound 2]	1400 nM and 1450 nM	+5.5 °C	37	in vitro inhibition of the telomerase (FIG. 3A, gel of elongation products) (human telomerase): inhibits the telomerase
tetra [N-methyl pyridyl]porphyrin [reference compound]	–	approximately 4 °C	–	–
CN(C)CCCNCc1cc2nc3ccccc3cc2c2cc3ccccc3nc12 [Compound 3]	750 nM	–	44	–
c1ccc2nc3cc(CNCCN4CCCCC4)c4nc5ccccc5cc4c3cc2c1 [Compound 7]	2000 nM	+2.5 °C	–	–
CCCNCc1ccc2nc3ccc4cc5cc(CNCCC)ccc5nc4c3cc2c1 [Compound 1]	300 nM	–	20	in vitro inhibition of the telomerase (FIG. 3A, gel of elongation products) (human telomerase): disappearance of the bands with less mobility; IC50 (human HeLa tumoral line; HeLa cells in the presence of compound for 24 hours): 500 nM; mortality (human HeLa tumoral line; HeLa cells incubated for 96 hours, 0.5 micromolars): 100%; mortality rate (human HeLa tumoral line; HeLa cells, concentrations of 5 micromolars or more): 100%
c1ccc2c(CCNCc3ccc4nc5ccc6cc7cc(CNCCc8c[nH]c9ccccc89)ccc7nc6c5cc4c3)c[nH]c2c1 [Compound 10]	–	+8.4 °C	–	–

The next lines start with results.

IC50 (human telomerase)	Molecule	Δ Tm G4(FRET) [1]	Δ Tm triplex (triplex) [°C]	further results
28 nM	CN(C)CCCNCc1ccc2nc3ccc4cc5cc(CNCCCN(C)C)ccc5nc4c3cc2c1 [Compound 13]	+19.7 °C	–	–
460 nM	c1cn(CCCNCc2ccc3nc4ccc5cc6cc(CNCCCn7ccnc7)ccc6nc5c4cc3c2)cn1 [Compound 8]	+15 °C	–	–
1000 nM	CCCNCc1ccc2nc3ccc4nc5ccc(CNCCC)cc5cc4c3cc2c1 [Compound 4]	–	18	–
130 nM	NCCCCNCc1ccc2nc3ccc4cc5cc(CNCCCCN)ccc5nc4c3cc2c1 [Compound 11]	+18 °C	–	–
900 nM	CN(C)CCCNCc1ccc2nc3c(ccc4cc5cc(CNCCCN(C)C)ccc5nc43)cc2c1 [Compound 6]	–	16	–
480 nM	c1cc2nc3ccc4cc5cc(CNCCCN6CCOCC6)ccc5nc4c3cc2cc1CNCCCN1CCOCC1 [Compound 12]	+7 °C	–	–
500 nM	CCCNCc1ccc2nc3c(ccc4cc5cc(CNCCC)ccc5nc43)cc2c1 [Compound 5]	+12.5 °C	7	–
950 nM	c1nc(CCNCc2ccc3nc4ccc5cc6cc(CNCCc7c[nH]cn7)ccc6nc5c4cc3c2)c[nH]1 [Compound 9]	+10.5 °C	–	–
